Reference: ChEMBL document CHEMBL4184331 (J Med Chem, 2018)
Blank lines part the entries; values can stand above or below the molecule they belong to.

How the values were obtained:
Glucocorticoid receptor [1] = target: T1, Glucocorticoid receptor (Homo sapiens, UniProt P04150)
T1 sequence (P04150 whole entry): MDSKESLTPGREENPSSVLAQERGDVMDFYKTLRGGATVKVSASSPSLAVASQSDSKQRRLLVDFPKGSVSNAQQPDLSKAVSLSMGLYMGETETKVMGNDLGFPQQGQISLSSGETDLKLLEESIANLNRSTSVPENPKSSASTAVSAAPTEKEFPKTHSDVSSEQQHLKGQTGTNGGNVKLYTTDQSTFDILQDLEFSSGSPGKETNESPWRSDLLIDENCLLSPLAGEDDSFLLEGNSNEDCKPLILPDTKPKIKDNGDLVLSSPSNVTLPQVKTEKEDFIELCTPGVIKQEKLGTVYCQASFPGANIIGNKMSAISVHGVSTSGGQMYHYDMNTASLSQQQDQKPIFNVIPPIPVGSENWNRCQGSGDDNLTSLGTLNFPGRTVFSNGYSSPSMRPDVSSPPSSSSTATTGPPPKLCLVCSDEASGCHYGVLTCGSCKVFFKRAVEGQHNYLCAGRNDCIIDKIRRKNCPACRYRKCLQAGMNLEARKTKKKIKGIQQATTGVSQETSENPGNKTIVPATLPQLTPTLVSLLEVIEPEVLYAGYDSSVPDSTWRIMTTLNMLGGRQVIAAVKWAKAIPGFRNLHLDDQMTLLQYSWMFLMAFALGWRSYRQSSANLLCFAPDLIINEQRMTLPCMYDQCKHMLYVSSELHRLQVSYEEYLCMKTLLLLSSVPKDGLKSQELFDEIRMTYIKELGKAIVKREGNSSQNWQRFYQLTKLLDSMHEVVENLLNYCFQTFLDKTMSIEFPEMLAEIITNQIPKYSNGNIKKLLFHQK
Description: Induction of nuclear translocation of human recombinant ProLabel-tagged glucocorticoid receptor expressed in CHO-K1 cells after 3 hrs by luminescence method

Glucocorticoid receptor [2] = target: T1, Glucocorticoid receptor; assay: biochemical
Description: Displacement of [3H]dexamethasone from human recombinant glucocorticoid receptor expressed in insect cells after 24 hrs by scintillation proximity assay

RAW264.7 = assay: cells; conditions: Mus musculus
Description: Antiinflammatory activity in mouse RAW264.7 cells assessed as inhibition of LPS-induced nitric oxide release preincubated for 15 mins followed by LPS challenge measured after 18 hrs by Griess assay

[3] = target: T2, Mineralocorticoid receptor (Homo sapiens, UniProt P08235)
T2 sequence (P08235 whole entry): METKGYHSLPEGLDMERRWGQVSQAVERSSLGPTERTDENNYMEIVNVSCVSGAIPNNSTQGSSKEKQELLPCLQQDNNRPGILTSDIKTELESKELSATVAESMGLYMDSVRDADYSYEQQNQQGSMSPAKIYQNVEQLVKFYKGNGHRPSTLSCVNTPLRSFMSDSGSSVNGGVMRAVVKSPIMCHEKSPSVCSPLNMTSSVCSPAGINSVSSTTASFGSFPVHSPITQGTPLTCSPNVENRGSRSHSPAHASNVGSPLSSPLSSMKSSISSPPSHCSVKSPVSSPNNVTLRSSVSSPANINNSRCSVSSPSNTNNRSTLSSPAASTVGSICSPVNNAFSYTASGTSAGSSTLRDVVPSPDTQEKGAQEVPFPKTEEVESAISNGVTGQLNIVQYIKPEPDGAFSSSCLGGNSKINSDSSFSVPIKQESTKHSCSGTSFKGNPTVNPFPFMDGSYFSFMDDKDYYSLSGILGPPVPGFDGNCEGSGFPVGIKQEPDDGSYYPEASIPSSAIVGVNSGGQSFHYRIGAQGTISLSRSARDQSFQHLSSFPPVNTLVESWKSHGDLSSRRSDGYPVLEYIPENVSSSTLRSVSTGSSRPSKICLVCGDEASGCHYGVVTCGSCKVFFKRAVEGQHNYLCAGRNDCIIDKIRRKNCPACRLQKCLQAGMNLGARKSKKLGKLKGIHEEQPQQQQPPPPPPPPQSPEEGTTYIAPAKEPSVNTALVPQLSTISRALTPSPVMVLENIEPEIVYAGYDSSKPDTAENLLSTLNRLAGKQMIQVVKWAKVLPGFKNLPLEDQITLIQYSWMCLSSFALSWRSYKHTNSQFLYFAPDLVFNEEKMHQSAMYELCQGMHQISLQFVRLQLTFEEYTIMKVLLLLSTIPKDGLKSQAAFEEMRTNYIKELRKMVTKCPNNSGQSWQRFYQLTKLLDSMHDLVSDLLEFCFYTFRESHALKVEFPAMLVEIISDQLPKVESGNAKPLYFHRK
Description: Induction of nuclear translocation of human recombinant ProLabel-tagged mineralocorticoid receptor expressed in CHO-K1 cells after 3 hrs by luminescence method

[4] = Cmax in Sprague-Dawley rat plasma at 1 umol/kg, it by HPLC-MS/MS method; assay type: ADME, cell-free; set-up: dose 1 umol/kg; conditions: inhaled or intranasal
[5] = AUClast in Sprague-Dawley rat plasma at 1 umol/kg, it by HPLC-MS/MS method; assay type: ADME, cell-free; conditions: inhaled or intranasal
[6] = AUClast in Sprague-Dawley rat lung at 1 umol/kg, it by HPLC-MS/MS method; assay type: ADME, tissue-based; conditions: in vivo, inhaled_or_intranasal
[7] = MRTlast in Sprague-Dawley rat plasma at 1 umol/kg, it by HPLC-MS/MS method; assay type: ADME, cell-free; conditions: inhaled or intranasal
[8] = Cmax in Sprague-Dawley rat lung at 1 umol/kg, it by HPLC-MS/MS method; assay type: ADME, tissue-based; set-up: dose 1 umol/kg; conditions: in vivo, inhaled_or_intranasal
[9] = MRTlast in Sprague-Dawley rat lung at 1 umol/kg, it by HPLC-MS/MS method; assay type: ADME, tissue-based; conditions: inhaled or intranasal

Description for physchem: Dissociation constant, pKa of the compound

Compound: C[C@]12C=CC(=O)C=C1[C@@H](F)C[C@H]1[C@@H]3C[C@H]4CN(Cc5ccccc5)C[C@@]4(C(=O)NCc4ccccc4)[C@@]3(C)C[C@H](O)[C@@]12F
pKa (physchem): 7.05
EC50 (Glucocorticoid receptor [1]): 50 nM
Ki (Glucocorticoid receptor [2]): 9.8 nM

Compound: CC(C)CCN1C[C@@H]2C[C@H]3[C@@H]4C[C@H](F)C5=CC(=O)C=C[C@]5(C)[C@@]4(F)[C@@H](O)C[C@]3(C)[C@]2(C(=O)CO)C1
pKa (physchem): 7.98
EC50 (Glucocorticoid receptor [1]): 3.4 nM
IC50 (RAW264.7): 0.22 nM
Ki (Glucocorticoid receptor [2]): 1.9 nM

pKa (physchem): 8.82
EC50 (Glucocorticoid receptor [1]): 1.3 nM
IC50 (RAW264.7): 0.34 nM
Ki (Glucocorticoid receptor [2]): 0.39 nM
Compound: C[C@]12C=CC(=O)C=C1[C@@H](F)C[C@H]1[C@@H]3C[C@H]4CN(c5ccccc5)C[C@@]4(C(=O)CO)[C@@]3(C)C[C@H](O)[C@@]12F

Compound: C[C@]12C=CC(=O)C=C1[C@@H](F)C[C@H]1[C@@H]3C[C@H]4CN(Cc5ccccc5)C[C@@]4(C(=O)CO)[C@@]3(C)C[C@H](O)[C@@]12F
pKa (physchem): 6.96
EC50 (Glucocorticoid receptor [1]): 1.7 nM
IC50 (RAW264.7): 0.15 nM
Ki (Glucocorticoid receptor [2]): 0.66 nM

Compound: C[C@]12C=CC(=O)C=C1[C@@H](F)C[C@H]1[C@@H]3C[C@H]4CN(Cc5ccccc5)C[C@@]4(C(=O)CF)[C@@]3(C)C[C@H](O)[C@@]12F
pKa (physchem): 6.87
EC50 (Glucocorticoid receptor [1]): 3.4 nM
Ki (Glucocorticoid receptor [2]): 0.52 nM

Compound: C[C@]12C=CC(=O)C=C1[C@@H](F)C[C@H]1[C@@H]3C[C@H]4CN(c5ccccc5)C[C@@]4(C(=O)CF)[C@@]3(C)C[C@H](O)[C@@]12F
pKa (physchem): 8.74
EC50 (Glucocorticoid receptor [1]): 3.2 nM
IC50 (RAW264.7): 1.38 nM
Ki (Glucocorticoid receptor [2]): 0.52 nM

Compound: CC(C)CCN1C[C@@H]2C[C@H]3[C@@H]4C[C@H](F)C5=CC(=O)C=C[C@]5(C)[C@@]4(F)[C@@H](O)C[C@]3(C)[C@]2(C(=O)SCF)C1
EC50 (Glucocorticoid receptor [1]): 57 nM
EC50 [3]: > 3000 nM
Ki (Glucocorticoid receptor [2]): 4.8 nM

Compound: C[C@]12C=CC(=O)C=C1[C@@H](F)C[C@H]1[C@@H]3C[C@H]4CN(Cc5ccc(CSc6ccc(O)cc6)cc5)C[C@@]4(C(=O)CO)[C@@]3(C)C[C@H](O)[C@@]12F
pKa (physchem): 6.95
EC50 (Glucocorticoid receptor [1]): 2.1 nM
EC50 [3]: 1.6 nM
IC50 (RAW264.7): 0.44 nM
Ki (Glucocorticoid receptor [2]): 0.62 nM

Compound: C[C@]12C=CC(=O)C=C1[C@@H](F)C[C@H]1[C@@H]3C[C@H]4CN(C(=O)OCc5ccccc5)C[C@@]4(C(=O)CO)[C@@]3(C)C[C@H](O)[C@@]12F
EC50 (Glucocorticoid receptor [1]): 44.1 nM
Ki (Glucocorticoid receptor [2]): 0.66 nM

Compound: Cc1cccc(CN2C[C@@H]3C[C@H]4[C@@H]5C[C@H](F)C6=CC(=O)C=C[C@]6(C)[C@@]5(F)[C@@H](O)C[C@]4(C)[C@]3(C(=O)CO)C2)c1
pKa (physchem): 7.27
EC50 (Glucocorticoid receptor [1]): 11.3 nM
IC50 (RAW264.7): 0.3 nM
Ki (Glucocorticoid receptor [2]): 0.52 nM

Compound: C[C@]12C=CC(=O)C=C1[C@@H](F)C[C@H]1[C@@H]3C[C@H]4CN(CC5CC5)C[C@@]4(C(=O)CO)[C@@]3(C)C[C@H](O)[C@@]12F
pKa (physchem): 7.83
EC50 (Glucocorticoid receptor [1]): 15.2 nM

Compound: Cc1ccc(CN2C[C@@H]3C[C@H]4[C@@H]5C[C@H](F)C6=CC(=O)C=C[C@]6(C)[C@@]5(F)[C@@H](O)C[C@]4(C)[C@]3(C(=O)CO)C2)cc1
pKa (physchem): 7.11
EC50 (Glucocorticoid receptor [1]): 8.4 nM
IC50 (RAW264.7): 0.16 nM
Ki (Glucocorticoid receptor [2]): 0.52 nM

Compound: C[C@]12C=CC(=O)C=C1[C@@H](F)C[C@H]1[C@@H]3C[C@H]4CN(c5cccc(Cl)c5)C[C@@]4(C(=O)CO)[C@@]3(C)C[C@H](O)[C@@]12F
pKa (physchem): 4.06
EC50 (Glucocorticoid receptor [1]): 5.8 nM
IC50 (RAW264.7): 0.4 nM
Ki (Glucocorticoid receptor [2]): 0.52 nM

Compound: C[C@]12C=CC(=O)C=C1[C@@H](F)C[C@H]1[C@@H]3C[C@H]4CN(c5ccc(Cl)cc5)C[C@@]4(C(=O)CO)[C@@]3(C)C[C@H](O)[C@@]12F
pKa (physchem): 4.42
EC50 (Glucocorticoid receptor [1]): 8.5 nM
IC50 (RAW264.7): 0.66 nM
Ki (Glucocorticoid receptor [2]): 0.67 nM

Compound: C[C@]12C=CC(=O)C=C1[C@@H](F)C[C@H]1[C@@H]3C[C@H]4CN(Cc5cccc(Cl)c5)C[C@@]4(C(=O)CO)[C@@]3(C)C[C@H](O)[C@@]12F.Cl
Cmax [4]: 0.09 µM
AUC(0-t) [5]: 120 nM·h
AUClast [6]: 9 nmol·h/g
MRT last [7]: 1.1 h
Cmax [8]: 9.03 nmol/g
MRT last [9]: 6.4 h

Compound: CC(=O)[C@@]12CN(Cc3cccc(Cl)c3)C[C@@H]1C[C@H]1[C@@H]3C[C@H](F)C4=CC(=O)C=C[C@]4(C)[C@@]3(F)[C@@H](O)C[C@@]12C
pKa (physchem): 6.9
EC50 (Glucocorticoid receptor [1]): 7.7 nM
IC50 (RAW264.7): 1.4 nM
Ki (Glucocorticoid receptor [2]): 0.57 nM

Compound: CN(C)C(=O)[C@@]12CN(Cc3ccccc3)C[C@@H]1C[C@H]1[C@@H]3C[C@H](F)C4=CC(=O)C=C[C@]4(C)[C@@]3(F)[C@@H](O)C[C@@]12C
pKa (physchem): 7.3
EC50 (Glucocorticoid receptor [1]): 40.3 nM
EC50 [3]: > 3000 nM
Ki (Glucocorticoid receptor [2]): 1.1 nM

Compound: C[C@]12C=CC(=O)C=C1[C@@H](F)C[C@H]1[C@@H]3C[C@H]4CN(Cc5cccc(Cl)c5)C[C@@]4(C(=O)SCF)[C@@]3(C)C[C@H](O)[C@@]12F
EC50 (Glucocorticoid receptor [1]): 45 nM
EC50 [3]: > 3000 nM

Compound: C[C@]12C=CC(=O)C=C1[C@@H](F)C[C@H]1[C@@H]3C[C@H]4CN(Cc5cccnc5)C[C@@]4(C(=O)CO)[C@@]3(C)C[C@H](O)[C@@]12F
pKa (physchem): 4.11
EC50 (Glucocorticoid receptor [1]): 63.9 nM

Compound: C[C@]12C=CC(=O)C=C1[C@@H](F)C[C@H]1[C@@H]3C[C@H]4CN(Cc5ccc6ccccc6n5)C[C@@]4(C(=O)CO)[C@@]3(C)C[C@H](O)[C@@]12F
pKa (physchem): 3.42
EC50 (Glucocorticoid receptor [1]): 31.2 nM
IC50 (RAW264.7): 11.9 nM
Ki (Glucocorticoid receptor [2]): 0.71 nM

Compound: C[C@]12C=CC(=O)C=C1[C@@H](F)C[C@H]1[C@@H]3C[C@H]4CN(Cc5cccc(Cl)c5)C[C@@]4(C(=O)OCF)[C@@]3(C)C[C@H](O)[C@@]12F
pKa (physchem): 6.58
EC50 (Glucocorticoid receptor [1]): 20.8 nM
Ki (Glucocorticoid receptor [2]): 0.57 nM

Compound: C[C@]12C=CC(=O)C=C1[C@@H](F)C[C@H]1[C@@H]3C[C@H]4CN(C(=O)c5ccccc5)C[C@@]4(C(=O)CO)[C@@]3(C)C[C@H](O)[C@@]12F
EC50 (Glucocorticoid receptor [1]): 248 nM

Compound: C[C@]12C=CC(=O)C=C1[C@@H](F)C[C@H]1[C@@H]3C[C@H]4CN(S(=O)(=O)c5cccs5)C[C@@]4(C(=O)CO)[C@@]3(C)C[C@H](O)[C@@]12F
EC50 (Glucocorticoid receptor [1]): 7.4 nM
IC50 (RAW264.7): 3.68 nM
Ki (Glucocorticoid receptor [2]): 0.66 nM

Compound: CN1C[C@@H]2C[C@H]3[C@@H]4C[C@H](F)C5=CC(=O)C=C[C@]5(C)[C@@]4(F)[C@@H](O)C[C@]3(C)[C@]2(C(=O)CO)C1
pKa (physchem): 7.91
EC50 (Glucocorticoid receptor [1]): 54.9 nM

Compound: C[C@]12C=CC(=O)C=C1[C@@H](F)C[C@H]1[C@@H]3C[C@H]4CN(Cc5ccc(Cl)cc5)C[C@@]4(C(=O)CO)[C@@]3(C)C[C@H](O)[C@@]12F
pKa (physchem): 6.72
EC50 (Glucocorticoid receptor [1]): 1.3 nM
IC50 (RAW264.7): 0.25 nM

Compound: COC(=O)[C@@]12CN(Cc3ccccc3)C[C@@H]1C[C@H]1[C@@H]3C[C@H](F)C4=CC(=O)C=C[C@]4(C)[C@@]3(F)[C@@H](O)C[C@@]12C
pKa (physchem): 7.12
EC50 (Glucocorticoid receptor [1]): 5.7 nM
Ki (Glucocorticoid receptor [2]): 0.71 nM
